Assay results: ChEMBL document CHEMBL1201862, “PubChem BioAssay data set” (2004)
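How tested: cells in 96-well plates exposed to compound for 48 hours at five concentrations. The concentration for 50% growth inhibition is given as GI50.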 Calls of active or inactive are those of the source. Rule as the data show it: active = GI50 up to about 1.1 µM and inactive = higher.

How the values were obtained:
Experiment in all cases: DTP human tumour cell line panel, 48 h
A549 = system: A549
ACHN = system: ACHN
HCT-15 = system: HCT-15
HOP-92 = system: HOP-92
HT-29 = system: HT-29
K562 = system: K562
M14 = system: M14
MOLT-4 = system: MOLT-4
Malme-3M = system: Malme-3M
NCI-H23 = system: NCI-H23
OVCAR-4 = system: OVCAR-4
OVCAR-5 = system: OVCAR-5
OVCAR-8 = system: OVCAR-8
RPMI-8226 = system: RPMI-8226
SF-295 = system: SF-295
SK-MEL-28 = system: SK-MEL-28
SK-MEL-5 = system: SK-MEL-5
SW-620 = system: SW-620
MDA-N = system: MDA-N
DU-145 = system: DU-145

Row | SMILES | GI50 (A549) | GI50 (ACHN) | GI50 (HCT-15) | GI50 (HOP-92) | GI50 (HT-29) | GI50 (K562) | GI50 (M14) | GI50 (MOLT-4) | GI50 (Malme-3M) | GI50 (NCI-H23) | GI50 (OVCAR-4) | GI50 (OVCAR-5) | GI50 (OVCAR-8) | GI50 (RPMI-8226) | GI50 (SF-295) | GI50 (SK-MEL-28) | GI50 (SK-MEL-5) | GI50 (SW-620) | GI50 (MDA-N) | GI50 (DU-145)
1 | CS(=O)(=O)ON1C(=O)c2ccc(N)cc2C1=O | > 100 µM (inactive) | > 100 µM (inactive) | 71.4 µM | > 100 µM (inactive) | > 79.3 µM (inactive) | 42.8 µM (inactive) | > 87.3 µM (inactive) | 21.4 µM (inactive) | > 100 µM (inactive) | > 100 µM (inactive) | > 100 µM (inactive) | > 100 µM (inactive) | 21.7 µM (inactive) | 23.8 µM (inactive) | > 100 µM (inactive) | > 49.4 µM (inactive) | > 100 µM (inactive) | 52.1 µM (inactive) | – | –
2 | CC1=NN(C(=O)c2ccc(Cl)cc2)C(=O)/C1=C/c1cccc(O)c1 | > 100 µM (inactive) | > 100 µM (inactive) | > 100 µM | > 100 µM (inactive) | > 100 µM (inactive) | > 100 µM (inactive) | > 100 µM (inactive) | > 100 µM (inactive) | > 100 µM (inactive) | > 100 µM (inactive) | > 100 µM (inactive) | > 100 µM (inactive) | > 100 µM (inactive) | > 100 µM (inactive) | > 100 µM (inactive) | > 100 µM (inactive) | > 100 µM (inactive) | > 100 µM (inactive) | – | –
3 | c1ccc2c3c([nH]c2c1)[C@H]1C2CCCCN2CN1CC3 (some centres undefined) | > 100 µM (inactive) | > 100 µM (inactive) | > 100 µM | > 100 µM (inactive) | 81.7 µM (inactive) | > 100 µM (inactive) | > 100 µM (inactive) | > 100 µM (inactive) | 83.6 µM (inactive) | > 100 µM (inactive) | > 100 µM (inactive) | > 100 µM (inactive) | > 100 µM (inactive) | > 100 µM (inactive) | > 100 µM (inactive) | > 100 µM (inactive) | > 100 µM (inactive) | > 100 µM (inactive) | – | –
4 | c1cc(-c2cn3ccsc3n2)ccn1 | > 100 µM (inactive) | > 100 µM (inactive) | > 44.2 µM | > 100 µM (inactive) | > 100 µM (inactive) | > 47.2 µM (inactive) | > 100 µM (inactive) | > 100 µM (inactive) | > 100 µM (inactive) | > 100 µM (inactive) | > 65.8 µM (inactive) | > 100 µM (inactive) | > 45.1 µM (inactive) | > 54.5 µM (inactive) | > 100 µM (inactive) | > 100 µM (inactive) | > 100 µM (inactive) | > 43.1 µM (inactive) | – | –
5 | N#CC(NNC(=O)c1ccccc1O)c1cccc(O)c1 (centres undefined) | 2.21 µM (inactive) | 2.31 µM (inactive) | 5.31 µM | 4.25 µM (inactive) | 37.6 µM (inactive) | 2.31 µM (inactive) | 6.35 µM (inactive) | 58.2 µM (inactive) | 12.9 µM (inactive) | 2.9 µM (inactive) | 3.36 µM (inactive) | 54.7 µM (inactive) | 8.22 µM (inactive) | > 100 µM (inactive) | 3.67 µM (inactive) | > 100 µM (inactive) | 18.2 µM (inactive) | 30.1 µM (inactive) | – | –
6 | O=C(O)/C=C\C(=O)Nc1ccc(S(=O)(=O)c2ccc(NC(=O)/C=C\C(=O)O)cc2)cc1 | > 100 µM (inactive) | > 100 µM (inactive) | > 100 µM | > 100 µM (inactive) | > 100 µM (inactive) | > 100 µM (inactive) | > 100 µM (inactive) | > 100 µM (inactive) | > 100 µM (inactive) | > 100 µM (inactive) | > 100 µM (inactive) | > 100 µM (inactive) | > 100 µM (inactive) | > 100 µM (inactive) | > 100 µM (inactive) | > 100 µM (inactive) | > 100 µM (inactive) | > 100 µM (inactive) | – | –
7 | O=C(c1ccccc1)C(c1ccccc1)C1(O)C(=O)Nc2c(Cl)cc(Cl)cc21 (centres undefined) | 18.9 µM (inactive) | 17.1 µM (inactive) | 39.4 µM | 18.9 µM (inactive) | 23.9 µM (inactive) | 15.5 µM (inactive) | 17.9 µM (inactive) | 20.3 µM (inactive) | 18.6 µM (inactive) | 18 µM (inactive) | 13.7 µM (inactive) | 17.1 µM (inactive) | 16.1 µM (inactive) | 8.34 µM (inactive) | 17.7 µM (inactive) | 18.9 µM (inactive) | 15.8 µM (inactive) | 14.4 µM (inactive) | – | –
8 | CN(Cc1cc(Cl)c(Cl)cc1NC(=O)CN)[C@H]1CCCC[C@@H]1N1CCCC1 | 38.3 µM (inactive) | > 100 µM (inactive) | – | > 100 µM (inactive) | 19 µM (inactive) | 17.8 µM (inactive) | 17.1 µM (inactive) | 28.8 µM (inactive) | 18.3 µM (inactive) | > 100 µM (inactive) | > 100 µM (inactive) | 46.3 µM (inactive) | 54.5 µM (inactive) | – | 18.6 µM (inactive) | 19.8 µM (inactive) | 17.7 µM (inactive) | 37.5 µM (inactive) | 17 µM (inactive) | –
9 | N=C(N)C1=C(O)NC(=O)N(C2CCCCC2)C1 | > 100 µM (inactive) | > 100 µM (inactive) | > 100 µM | > 100 µM (inactive) | > 100 µM (inactive) | > 100 µM (inactive) | > 100 µM (inactive) | > 100 µM (inactive) | > 100 µM (inactive) | > 100 µM (inactive) | > 100 µM (inactive) | > 100 µM (inactive) | > 100 µM (inactive) | > 100 µM (inactive) | > 100 µM (inactive) | > 100 µM (inactive) | > 100 µM (inactive) | > 100 µM (inactive) | – | –
10 | C=CCNC(=O)NC1=CSC2=NC(=O)C3(NN12)c1ccccc1-c1ccccc13 | > 10 µM (inactive) | > 10 µM (inactive) | > 10 µM | > 10 µM (inactive) | > 10 µM (inactive) | > 10 µM (inactive) | > 10 µM (inactive) | > 10 µM (inactive) | > 10 µM (inactive) | > 10 µM (inactive) | > 10 µM (inactive) | > 10 µM (inactive) | > 10 µM (inactive) | > 10 µM (inactive) | > 10 µM (inactive) | > 10 µM (inactive) | > 10 µM (inactive) | > 10 µM (inactive) | – | > 10 µM (inactive)
11 | COc1cc2c(cc1OCCCOc1cc(-c3ccc(F)cc3)nc(C)n1)N=C[C@@H]1CCCN1C2=O | 18.2 µM (inactive) | 16.1 µM (inactive) | 12.6 µM | 27.4 µM (inactive) | 23.1 µM (inactive) | – | 15.5 µM (inactive) | 14.3 µM (inactive) | 12.8 µM (inactive) | 15.1 µM (inactive) | 33.5 µM (inactive) | – | 24.5 µM (inactive) | 26.1 µM (inactive) | 16.4 µM (inactive) | 20.7 µM (inactive) | 15.9 µM (inactive) | 22.9 µM (inactive) | – | 9.06 µM (inactive)
12 | CC1=NN(c2nc(N)nc(CF)n2)C(C)(C)C1 | – | > 100 µM (inactive) | > 100 µM | > 100 µM (inactive) | > 100 µM (inactive) | 49.3 µM (inactive) | > 100 µM (inactive) | > 100 µM (inactive) | – | > 100 µM (inactive) | > 100 µM (inactive) | – | > 100 µM (inactive) | > 100 µM (inactive) | > 100 µM (inactive) | > 100 µM (inactive) | > 100 µM (inactive) | > 100 µM (inactive) | – | > 100 µM (inactive)
13 | CC1(C)O[C@@H]2[C@@H](COC(=O)c3ccccc3)C[C@@H](C#N)[C@@H]2O1 | > 100 µM (inactive) | > 100 µM (inactive) | > 100 µM | > 100 µM (inactive) | > 100 µM (inactive) | > 100 µM (inactive) | > 100 µM (inactive) | > 100 µM (inactive) | > 100 µM (inactive) | > 100 µM (inactive) | > 100 µM (inactive) | > 100 µM (inactive) | > 100 µM (inactive) | > 100 µM (inactive) | > 100 µM (inactive) | > 100 µM (inactive) | > 100 µM (inactive) | > 100 µM (inactive) | – | > 100 µM (inactive)
14 | C#CCNC(Cc1ccccc1)C(=O)O (centres undefined) | > 100 µM (inactive) | > 100 µM (inactive) | > 100 µM | > 100 µM (inactive) | > 100 µM (inactive) | > 100 µM (inactive) | > 100 µM (inactive) | > 100 µM (inactive) | > 100 µM (inactive) | > 100 µM (inactive) | > 100 µM (inactive) | > 100 µM (inactive) | > 100 µM (inactive) | > 100 µM (inactive) | > 100 µM (inactive) | > 100 µM (inactive) | > 100 µM (inactive) | > 100 µM (inactive) | – | > 100 µM (inactive)
15 | COC1C=COC2(C)Oc3c(C)c(O)c4c(O)c(c(C5SCCS5)c(O)c4c3C2=O)NC(=O)C(C)=C/C=C\C(C)C2OC(C)(C)OC(C2C)C(C)C(OC(C)=O)C1C (centres undefined) | 3.66 µM (inactive) | 3.15 µM (inactive) | 5.6 µM | 5.55 µM (inactive) | – | 4.09 µM (inactive) | 9.31 µM (inactive) | 3.83 µM (inactive) | 11.5 µM (inactive) | 6.44 µM (inactive) | 6.07 µM (inactive) | 24.3 µM (inactive) | 5.15 µM (inactive) | 4.57 µM (inactive) | 5.32 µM (inactive) | 23.5 µM (inactive) | 3.77 µM (inactive) | 7 µM (inactive) | – | 8.93 µM (inactive)
